Test results taken from patent publication US8519149B2, “Tricyclic compounds as mPGES-1 inhibitors” (Glenmark Pharmaceuticals S.A., priority 2010, dated 2013).

Target: T1, Recombinant human mPGES-1 (Homo sapiens, UniProt O14684)
T1 sequence (O14684 1-152): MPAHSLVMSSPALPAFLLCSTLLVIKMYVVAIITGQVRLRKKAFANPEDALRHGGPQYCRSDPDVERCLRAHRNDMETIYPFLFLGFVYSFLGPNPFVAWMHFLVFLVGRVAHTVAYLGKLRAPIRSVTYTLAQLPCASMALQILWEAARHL
Assay: In-vitro mPGES-1 enzyme inhibition assay (PGE2 formation from PGH2, HTRF detection)
Type: biochemical
Conditions: for inhibition at 1 µM: 1 μM test compound, read-out: Percentage inhibition at 1 μM; for inhibition at 1 µM / inhibition at 10 µM: recombinant human mPGES-1 microsomal fraction; for inhibition at 10 µM: 10 μM test compound, read-out: Percentage inhibition at 10 μM; for IC50: class symbols, selected examples
Procedure, shortened: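 IC50 values were derived by nonlinear regression of percent inhibition relative to enzyme reactions run without inhibitor. PGE2 formed from PGH2 with GSH was quantified by antibody-based HTRF after stannous chloride quench. Enzyme source was human mPGES-1 microsomes at 40-60 μg/mL protein; DMSO 0.5% (v/v).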

inhibition at 1 µM [%] | inhibition at 10 µM [%] | IC50 [nM] | SMILES
62.3 | 80.8 |  | COc1cc(OC)cc(-c2noc(-c3cc4nc(Nc5c(Cl)cccc5Cl)[nH]c4c4c3OC(C)(C)C4)n2)c1 [Example-162, N-(2,6-Dichlorophenyl)-5-(3-(3,5-dimethoxyphenyl)-1,2,4-oxadiazol-5-yl)-7,7-dimethyl-7,8-dihydro-1H-benzofuro[4,5-d]imidazol-2-amine]
96.9 | 99.8 | < 50 | CC1(C)Cc2c(c(C(=O)NC3(c4ccc(C(F)(F)F)cc4)CC3)cc3nc(Nc4c(F)cccc4Cl)[nH]c23)O1 [Example-116, 2-[(2-Chloro-6-fluorophenyl)amino]-7,7-dimethyl-N-{1-[4-(trifluoromethyl)phenyl]cyclopropyl}-7,8-dihydro-1H-furo[3,2-e]benzimidazole-5-carboxamide]
9.35 | 46.2 |  | Cc1ccc(Nc2nc3cc(C(=O)Nc4ccccc4C(F)(F)F)c4c(c3[nH]2)CC(C)(C)O4)c(C)n1 [Example-106]
91.4 | 96.5 | < 50 | Cc1cccc(Cl)c1Nc1nc2cc(C(=O)Nc3ccc(F)c(C(F)(F)F)c3)c3c(c2[nH]1)CC(C)(C)O3 [Example-133, 2-((2-Chloro-6-methylphenyl)amino)-N-(4-fluoro-3-(trifluoromethyl)phenyl)-7,7-dimethyl-7,8-dihydro-1H-benzofuro[4,5-d]imidazole-5-carboxamide]
